1 compound from publication PMC11582173, “Synthesis, cytotoxicity, anti-inflammatory, anti-metastatic and anti-oxidant activities of novel chalcones incorporating 2-phenoxy-N-arylacetamide and thiophene moieties: induction of apoptosis in MCF7 and HEP2 cells” (Naunyn-Schmiedeberg's Archives of Pharmacology, 2024) can be followed below.

Values joined by “and” are separate entries in the source; they are usually repeats but may differ in a detail not shown here. Equal values may be shown once.

What all share (assay type): cell-based, human
The subject of assay [1] is BAX. The assay is described as follows: ELISA, BAX concentration. Here is the method: (§1) The concentrations of matrix metalloproteinase-2 (MMP2), matrix metalloproteinase-9 (MMP9), Bcl2, BAX, P53, Malondialdehyde (MDA), Glutathione (GSH), caspase 8, caspase 9 and IL-6 were measured quantitatively in 5c treated MCF7 and HEP2 cells using ELISA (Enzyme-Linked Immunosorbent Assay) (Table 4). Gelatinases are a collective word for MMP-2 and MMP-9, where MMP-2 is gelatinase-A and MMP-9 is gelatinase-B. Solid tumor invasion, metastasis, and angiogenesis have long been linked to gelatinases (Das et al. [2021]). […] Bcl2 is a crucial protein that targets apoptosis inhibition. It is regarded as a predictive biomarker or therapeutic target in the diagnosis of cancer due to its broad expression in a variety of cancers (Porter et al. [2009]). […] The pro-apoptotic protein BAX permeabilizes the mitochondrial outer membrane by changing from a cytosolic monomer to a hazardous oligomer triggering the apoptosis process (Fulda and Debatin [2006]). […] P53 transcription factor performs an essential tumor suppressor role by coordinating a wide range of physiological responses, including DNA repair, cell cycle arrest, cellular senescence, cell death, cell differentiation, and metabolism (Liebl and Hofmann [2021]). It was activated in MCF7 and HEP2-treated cells with values (4.28 and 3.109 ng/mL), respectively, compared to their controls (3.44 and 2.06 ng/mL). […]
(In an ELISA, binding on a coated surface is turned into a signal by an enzyme label.)

In assay [2] the test system is Glutathione (GSH). In words: ELISA, GSH concentration. As to the method: as §1
Assay [3] concerns Caspase 9. The assay is described as follows: ELISA, Caspase 9 concentration. Here is the method: as §1
Assay [4] relates to HEP2 cells. In words: Flow cytometric analysis of cell cycle, HEP2. The note with it: HEP2, IC50 of 5c, 48 h. Here is the method:
In the G0-G1 stage, the percentage of 5c-treated cells declined to 55.4% as opposed to 57.6% of untreated control cells. It was found in a previous work that lutein-induced G2/M phase arrest in A549 and PC-9 cells (Di et al. [2019]).
In DMEM-supplemented media, cells were plated in 12-well plates at a cell density of 6–8×10^5 per well. After twenty-four hours, cells were cultured for an additional 48 hours with the IC50 of the target compound. The untreated cells were used as a negative control. After 48 h of incubation, the treated cells were centrifuged at 1,200 rpm and 4 °C for 10 min. After discarding the supernatant, the wells were then given a single phosphate-buffered saline (PBS) wash and then centrifuged for 10 min at 1,200 rpm. Trypsin/EDTA was used to collect the cells, and after one PBS wash, they were resuspended in 0.5 mL of 0.05% Triton X-100 for 10 min at room temperature. Each cell suspension was stained by being given 1 mL of 50 µg/mL propidium iodide (PI) to be left at room temperature in the darkness for 20 minutes. The analysis of the cell cycle was done by a flow cytometer (Becton Dickenson (BD) FACSCalibur, USA) (Michalkova et al. [2022]).

Regarding `COc1ccc(NC(=O)COc2ccc(C=CC(=O)c3cccs3)cc2)cc1` [Compound 5c, N-(4-Methoxyphenyl)-2-(4-(3-oxo-3-(thiophen-2-yl)prop-1-en-1-yl)phenoxy)acetamide], the BAX concentration is 1342.8 pg/mL and 1342.8 ± 12.7 pg/mL in assay [1] (5c treated HEP2 cells, untreated 1261.8±7.38); 1099.36 pg/mL and 1099.36 ± 12.8 pg/mL in assay [1] (5c treated MCF7 cells, untreated 946.30±12.7). In addition, the GSH concentration in assay [2] (5c treated HEP2 cells, untreated 0.668±0.010) is 0.821 ng/mL and 0.821 ± 0.009 ng/mL; in assay [2] (5c treated MCF7 cells, untreated 0.737±0.009) it was 0.939 ng/mL and 0.939 ± 0.022 ng/mL. The Caspase9 concentration in assay [3] (5c treated HEP2 cells, untreated 3.70±0.18) was 27.54 ng/mL and 27.54 ± 0.68 ng/mL; in assay [3] (5c treated MCF7 cells, untreated 3.66±0.49), 28.03 ng/mL and 28.03 ± 0.49 ng/mL. Further, in assay [4] (untreated control 2.205±0.10607), the “Percentage of DNA in G2-M phase” value was 3.56% and 3.565±0.1485%. Also, the “Percentage of DNA in S phase” value in assay [4] (untreated control 40.095±0.36062) is 40.96% and 40.96±0.08485%. In addition, the “Percentage of DNA in G0-G1 phase” value in assay [4] (untreated control 57.67±0.21213) was 55.4% and 55.475±0.233%.
